In this test the target is T1, human FXR (Homo sapiens, UniProt Q96RI1).
T1 construct: expressed in transfected cells; host or cells: HEK293 cells stably carrying a 5xGal4-response-element firefly luciferase reporter, transiently transfected with pcDNA3.1-Gal4-FXR
T1 sequence (Q96RI1 262-486 limits assumed): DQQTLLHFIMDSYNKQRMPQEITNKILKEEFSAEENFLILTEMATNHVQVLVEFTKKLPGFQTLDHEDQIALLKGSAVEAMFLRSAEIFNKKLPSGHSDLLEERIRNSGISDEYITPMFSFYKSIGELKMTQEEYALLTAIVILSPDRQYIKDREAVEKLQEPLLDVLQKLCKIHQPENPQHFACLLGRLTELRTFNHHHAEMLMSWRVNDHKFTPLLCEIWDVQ
As to the kind of experiment: transient human FXR/Gal4-luciferase reporter assay. It is filed as cell-based. As to conditions: Gal4-hFXR LBD fusion, luciferase reporter in HEK293 cells; response relative to 8 μM GW-4064. In a few lines:
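HEK293 cells stably carrying a 5×Gal4-response-element firefly luciferase reporter were transiently transfected with Gal4-hFXR. They were then incubated overnight at 37 °C with compound serial dilutions in medium containing 10% charcoal/dextran-stripped FBS. Luminescence was read after Steady-Glo addition.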

SMILES strings stand for the structures.

On to `CCCc1ncc(-c2cccc(N(CC34CCC(c5nc(C6CC6)no5)(CC3)CC4)C(=O)C3CCCCC3)c2)o1` [Example 28, N-((4-(3-cyclopropyl-1,2,4-oxadiazol-5-yl)bicyclo[2.2.2]octan-1-yl)methyl)-N-(3-(2-propyloxazol-5-yl)phenyl)cyclohexanecarboxamide], for which the midpoint of the response, the EC50, lay at 0.034 µM.

`COc1cc(-c2cccc(N(CC34CC(c5nc(C6CCOCC6)no5)(C3)C4)C(=O)C3CCCCC3)c2)ccn1` [Example 97, N-(3-(2-methoxypyridin-4-yl)phenyl)-N-((3-(3-(tetrahydro-2H-pyran-4-yl)-1,2,4-oxadiazol-5-yl)bicyclo[1.1.1]pentan-1-yl)methyl)cyclohexanecarboxamide] gave an EC50 of 1.71 µM.

Turning to `O=C(C1CCC(F)(F)CC1)N(CC12CCC(c3noc(C(F)(F)F)n3)(CC1)CC2)c1cccc(-c2cnc(C3CC3)nc2)c1` [Example 119, N-(3-(2-cyclopropylpyrimidin-5-yl)phenyl)-4,4-difluoro-N-((4-(5-(trifluoromethyl)-1,2,4-oxadiazol-3-yl)bicyclo[2.2.2]octan-1-yl)methyl)cyclohexane-1-carboxamide], a half-maximal response (EC50) required 0.29 µM.

`O=C(C1CCC(F)(F)CC1)N(CC12CCC(c3noc(C4(C(F)(F)F)CC4)n3)(CC1)CC2)c1cccc(-c2cc(C3CC3)no2)c1` [Example 149, N-(3-(3-cyclopropylisoxazol-5-yl)phenyl)-4,4-difluoro-N-((4-(5-(1-(trifluoromethyl)cyclopropyl)-1,2,4-oxadiazol-3-yl)bicyclo[2.2.2]octan-1-yl)methyl)cyclohexane-1-carboxamide] gave an EC50 of 0.078 µM.

The compound `O=C(C1CCOCC1)N(CC12CCC(c3nc(C4CC4)no3)(CC1)CC2)c1cccc(-c2nc(CC3CC3)no2)c1` [Example 44, N-((4-(3-cyclopropyl-1,2,4-oxadiazol-5-yl)bicyclo[2.2.2]octan-1-yl)methyl)-N-(3-(3-(cyclopropylmethyl)-1,2,4-oxadiazol-5-yl)phenyl)tetrahydro-2H-pyran-4-carboxamide] yielded an EC50 of 0.118 µM.

As to `O=C(C1CCOCC1)N(CC12CCC(c3nc(CC4CC4)no3)(CC1)CC2)c1cccc(-c2nc(CC3CC3)no2)c1` [Example 41, N-((4-(3-(cyclopropylmethyl)-1,2,4-oxadiazol-5-yl)bicyclo[2.2.2]octan-1-yl)methyl)-N-(3-(3-(cyclopropylmethyl)-1,2,4-oxadiazol-5-yl)phenyl)tetrahydro-2H-pyran-4-carboxamide], the response was half-maximal at 0.229 µM (EC50).

Turning to `COc1cccc(-c2cccc(N(CC34CCC(c5nc(C6CC6)no5)(CC3)CC4)C(=O)C3CCCCC3)c2)c1` [Example 74, N-((4-(3-cyclopropyl-1,2,4-oxadiazol-5-yl)bicyclo[2.2.2]octan-1-yl)methyl)-N-(3′-methoxy-[1,1′-biphenyl]-3-yl)cyclohexanecarboxamide], the EC50 was 0.151 µM. Against the preceding compound, the EC50 is about 1.5-fold lower.

`CC(F)(F)c1nc(C23CCC(CN(C(=O)C4CCOCC4)c4cccc(-c5cc(C6CC6)on5)c4)(CC2)CC3)no1` [Example 156, N-(3-(5-cyclopropylisoxazol-3-yl)phenyl)-N-((4-(5-(1,1-difluoroethyl)-1,2,4-oxadiazol-3-yl)bicyclo[2.2.2]octan-1-yl)methyl)tetrahydro-2H-pyran-4-carboxamide]: the EC50 came out at 0.044 µM.

For `CCOc1ccc(-c2cc(N(CC34CCC(c5noc(C(C)(F)F)n5)(CC3)CC4)C(=O)C3CCC(F)(F)CC3)ccc2F)cc1` [Example 105, N-((4-(5-(1,1-difluoroethyl)-1,2,4-oxadiazol-3-yl)bicyclo[2.2.2]octan-1-yl)methyl)-N-(4′-ethoxy-6-fluoro-[1,1′-biphenyl]-3-yl)-4,4-difluorocyclohexane-1-carboxamide], the EC50 stood at 0.637 µM.

Compound `CCOc1ncc(-c2cccc(N(CC34CCC(c5nc(C6CC6)no5)(CC3)CC4)C(=O)C3CCCCC3)c2)o1` [Example 8, N-((4-(3-cyclopropyl-1,2,4-oxadiazol-5-yl)bicyclo[2.2.2]octan-1-yl)methyl)-N-(3-(2-ethoxyoxazol-5-yl)phenyl)cyclohexanecarboxamide] registered an EC50 of 0.019 µM.

`CCOc1ncc(-c2cccc(N(CC34CCC(c5nc(C)no5)(CC3)CC4)C(=O)C3CCCCC3)c2)o1` [Example 10, N-(3-(2-ethoxyoxazol-5-yl)phenyl)-N-((4-(3-methyl-1,2,4-oxadiazol-5-yl)bicyclo[2.2.2]octan-1-yl)methyl)cyclohexanecarboxamide] returned an EC50 of 0.071 µM.

Take `CCc1noc(-c2cccc(N(CC34CCC(c5nc(C)no5)(CC3)CC4)C(=O)C3CCCCC3)c2)n1` [Example 3]: it took 0.158 µM to reach a half-maximal effect (EC50).

As to `COc1cc(-c2cccc(N(CC34CCC(c5nc(C)no5)(CC3)CC4)C(=O)C3CCCCC3)c2)ccn1` [Example 73, N-(3-(2-methoxypyridin-4-yl)phenyl)-N-((4-(3-methyl-1,2,4-oxadiazol-5-yl)bicyclo[2.2.2]octan-1-yl)methyl)cyclohexane carboxamide], the EC50 was determined as 0.517 µM.

`O=C(C1CCOCC1)N(CC12CCC(c3nc(C4CC4)no3)(CC1)CC2)c1cccc(-c2nc(C3CC3)no2)c1` [Example 15, N-((4-(3-cyclopropyl-1,2,4-oxadiazol-5-yl)bicyclo[2.2.2]octan-1-yl)methyl)-N-(3-(3-cyclopropyl-1,2,4-oxadiazol-5-yl)phenyl)tetrahydro-2H-pyran-4-carboxamide] displayed an EC50 of 0.134 µM.

Compound `CC(C)(O)c1coc(-c2cccc(N(CC34CCC(c5nc(C6CC6)no5)(CC3)CC4)C(=O)C3CCCCC3)c2)n1` [Example 21, N-((4-(3-cyclopropyl-1,2,4-oxadiazol-5-yl)bicyclo[2.2.2]octan-1-yl)methyl)-N-(3-(4-(2-hydroxypropan-2-yl)oxazol-2-yl)phenyl)cyclohexanecarboxamide] returned a concentration giving a half-maximal response (EC50) of 0.194 µM. This EC50 and that of the compound before are within 1.5-fold of each other.

Turning to `COc1cc(-c2cccc(N(CC34CCC(c5nnc(C)s5)(CC3)CC4)C(=O)C3CCCCC3)c2)ccn1` [Example 80, N-(3-(2-methoxypyridin-4-yl)phenyl)-N-((4-(5-methyl-1,3,4-thiadiazol-2-yl)bicyclo[2.2.2]octan-1-yl)methyl)cyclohexanecarboxamide], the EC50 turned out to be 0.532 µM.

On to `O=C(C1CCCOC1)N(CC12CCC(c3nc(C4CC4)no3)(CC1)CC2)c1cccc(-c2nnc(C3CC3)o2)c1` (racemic) [Example 55, N-((4-(3-cyclopropyl-1,2,4-oxadiazol-5-yl)bicyclo[2.2.2]octan-1-yl)methyl)-N-(3-(5-cyclopropyl-1,3,4-oxadiazol-2-yl)phenyl)tetrahydro-2H-pyran-3-carboxamide], for which the midpoint of the response, the EC50, lay at 0.929 µM. This EC50 is about 1.7-fold higher than that of the compound before.

In turn, `CC(F)(F)c1nc(C23CCC(CN(C(=O)C4CCC(O)(C(F)(F)F)CC4)c4cccc(-c5cc(C6CC6)on5)c4)(CC2)CC3)no1` (stereo not drawn) [Example 157, N-(3-(5-cyclopropylisoxazol-3-yl)phenyl)-N-((4-(5-(1,1-difluoroethyl)-1,2,4-oxadiazol-3-yl)bicyclo[2.2.2]octan-1-yl)methyl)-4-hydroxy-4-(trifluoromethyl)cyclohexane-1-carboxamide] displayed an EC50 of 0.242 µM.

For the compound `CC(C)(C)OC(=O)N1CCC(C(=O)N(CC23CCC(c4nc(C5CC5)no4)(CC2)CC3)c2cccc(-c3nc(C(F)F)co3)c2)CC1` [Example 38, tert-butyl 4-(((4-(3-cyclopropyl-1,2,4-oxadiazol-5-yl)bicyclo[2.2.2]octan-1-yl)methyl)(3-(4-(difluoromethyl)oxazol-2-yl)phenyl)carbamoyl) piperidine-1-carboxylate], the EC50 is 4.39 µM.

As to `CCOc1ncc(-c2cccc(N(CC34CCC(c5noc(C(C)(C)F)n5)(CC3)CC4)C(=O)c3ccc(OC)cc3)c2)cn1` [Example 143, N-(3-(2-ethoxypyrimidin-5-yl)phenyl)-N-((4-(5-(2-fluoropropan-2-yl)-1,2,4-oxadiazol-3-yl)bicyclo[2.2.2]octan-1-yl)methyl)-4-methoxybenzamide], the EC50 amounted to 0.202 µM.

Take `Cc1nc2ccc(-c3cccc(N(CC45CCC(c6nc(C7CC7)no6)(CC4)CC5)C(=O)C4CCCCC4)c3)cc2s1` [Example 90, N-((4-(3-cyclopropyl-1,2,4-oxadiazol-5-yl)bicyclo[2.2.2]octan-1-yl)methyl)-N-(3-(2-methylbenzo[d]thiazol-6-yl)phenyl)cyclohexanecarboxamide]: the midpoint of the response, the EC50, lay at 0.036 µM.

For the compound `O=C(C1CCOCC1)N(CC12CCC(c3nc(C4CC4)no3)(CC1)CC2)c1cccc(-c2nnc(C3CC3)o2)c1` [Example 54, N-((4-(3-cyclopropyl-1,2,4-oxadiazol-5-yl)bicyclo[2.2.2]octan-1-yl)methyl)-N-(3-(5-cyclopropyl-1,3,4-oxadiazol-2-yl)phenyl)tetrahydro-2H-pyran-4-carboxamide], the midpoint of the response, the EC50, lay at 0.373 µM. Compared with the last compound, the EC50 is about 10-fold higher.

As for `CC(C)(C)c1nc(C23CCC(CN(C(=O)C4CCOCC4)c4cccc(-c5nc(C6CC6)no5)c4)(CC2)CC3)no1` [Example 116, N-((4-(5-(tert-butyl)-1,2,4-oxadiazol-3-yl)bicyclo[2.2.2]octan-1-yl)methyl)-N-(3-(3-cyclopropyl-1,2,4-oxadiazol-5-yl)phenyl)tetrahydro-2H-pyran-4-carboxamide], a half-maximal response (EC50) required 0.061 µM.

As for `CC(C)(C)c1noc(C23CCC(CN(C(=O)C4CCC(F)(F)CC4)c4cccc(-c5nc(C6CC6)no5)c4)(CC2)CC3)n1` [Example 103, N-((4-(3-(tert-butyl)-1,2,4-oxadiazol-5-yl)bicyclo[2.2.2]octan-1-yl)methyl)-N-(3-(3-cyclopropyl-1,2,4-oxadiazol-5-yl)phenyl)-4,4-difluorocyclohexane-1-carboxamide], the 50% effective concentration (EC50) worked out at 0.25 µM. Compared with the last compound, the EC50 is about 4.1-fold higher.

The values are drawn from patent US12227496B2 (BRISTOL-MYERS SQUIBB COMPANY, priority 2019, dated 2025).
